Reference: ChEMBL document CHEMBL1139968, “Cytotoxic effects of C-glycosides in HOS and HeLa cell lines” (2007)

Assays:
HeLa = assay: Antiproliferative activity against human HeLa cells by SRB assay; type: functional
HOS = assay: Antiproliferative activity against human HOS cells by SRB assay; type: functional

## O[C@@H]1[C@@H](OCc2ccccc2)[C@H](OCc2ccccc2)[C@@H](COCc2ccccc2)O[C@H]1Cc1ccccc1
HeLa
  GI50: 17.4 µM
HOS
  GI50: 29.2 µM

## CCCCCCCCCCCCCCCOC[C@H]1O[C@@H](CCC)[C@H](O)[C@@H](OCCCCCCCCCCCCCCC)[C@@H]1OCCCCCCCCCCCCCCC
HeLa
  GI50: > 50 µM
HOS
  GI50: > 50 µM

## O[C@H]1CO[C@H](COCc2ccccc2)[C@@H](OCc2ccccc2)[C@@H]1OCc1ccccc1
HeLa
  GI50: > 50 µM
HOS
  GI50: 37.9 µM

## ClC1(Cl)[C@@H]2[C@@H](OCc3ccccc3)[C@H](OCc3ccccc3)[C@@H](COCc3ccccc3)O[C@@H]21
HeLa
  GI50: > 50 µM
HOS
  GI50: 1.6 µM

## C=CC[C@@H]1O[C@H](COCc2ccccc2)[C@@H](OCc2ccccc2)[C@H](OCc2ccccc2)[C@H]1OC(C)=O
HeLa
  GI50: > 50 µM
HOS
  GI50: 11 µM

## C=CC[C@@H]1O[C@H](COCc2ccccc2)[C@@H](OCc2ccccc2)[C@H](OCc2ccccc2)C1=O
HeLa
  GI50: > 50 µM
HOS
  GI50: 7.6 µM

## O[C@@H]1[C@@H](OCc2ccccc2)[C@H](OCc2ccccc2)[C@@H](COCc2ccccc2)O[C@H]1CC1CC1
HeLa
  GI50: > 50 µM
HOS
  GI50: > 50 µM

## c1ccc(COC[C@H]2O[C@@H]3C[C@@H]3[C@@H](OCc3ccccc3)[C@@H]2OCc2ccccc2)cc1
HeLa
  GI50: > 50 µM
HOS
  GI50: > 50 µM

## C[C@@H]1O[C@H](COCc2ccccc2)[C@@H](OCc2ccccc2)[C@H](OCc2ccccc2)[C@H]1O
HeLa
  GI50: > 50 µM
HOS
  GI50: > 50 µM

## OC[C@H]1O[C@@H](Cc2ccccc2)[C@H](O)[C@@H](OCc2ccccc2)[C@@H]1OCc1ccccc1
HeLa
  GI50: 38 µM
HOS
  GI50: 31.6 µM

## CC(C)C[C@@H]1O[C@H](COCc2ccccc2)[C@@H](OCc2ccccc2)[C@H](OCc2ccccc2)[C@@H]1O
HeLa
  GI50: 24.6 µM
HOS
  GI50: 26.3 µM

## c1ccc(COC[C@H]2OCC[C@@H](OCc3ccccc3)[C@@H]2OCc2ccccc2)cc1
HeLa
  GI50: 33.3 µM
HOS
  GI50: 22.2 µM

## CC(C)C[C@@H]1O[C@H](COCc2ccccc2)[C@@H](OCc2ccccc2)[C@H](OCc2ccccc2)[C@H]1O
HeLa
  GI50: > 50 µM
HOS
  GI50: 45.2 µM

## CCCCCCCCCCCCCCCOC[C@H]1O[C@H](CCC)[C@H](O)[C@@H](OCCCCCCCCCCCCCCC)[C@@H]1OCCCCCCCCCCCCCCC
HeLa
  GI50: 28.7 µM
HOS
  GI50: 29.9 µM

## OCCC[C@@H]1O[C@H](COCc2ccccc2)[C@@H](OCc2ccccc2)[C@H](OCc2ccccc2)[C@H]1O
HeLa
  GI50: > 50 µM
HOS
  GI50: > 50 µM

## CCC[C@@H]1O[C@H](CO)[C@@H](O)[C@H](O)[C@H]1O
HeLa
  GI50: > 50 µM
HOS
  GI50: > 50 µM

## C=CC[C@@H]1O[C@H](COCc2ccccc2)[C@@H](OCc2ccccc2)[C@H](OCc2ccccc2)[C@H]1O
HeLa
  GI50: 26.2 µM
HOS
  GI50: 44.1 µM

## CC(C)C[C@H]1O[C@H](COCc2ccccc2)[C@@H](OCc2ccccc2)[C@H](OCc2ccccc2)[C@H]1O
HeLa
  GI50: 43.9 µM
HOS
  GI50: 44.5 µM

## CC[C@@H]1O[C@H](COCc2ccccc2)[C@@H](OCc2ccccc2)[C@H](OCc2ccccc2)[C@H]1O
HeLa
  GI50: 19.8 µM
HOS
  GI50: 34.2 µM

## CCC[C@H]1O[C@H](COCc2ccccc2)[C@@H](OCc2ccccc2)[C@H](OCc2ccccc2)[C@H]1O
HeLa
  GI50: 17.4 µM
HOS
  GI50: 23.6 µM

## O[C@@H]1[C@@H](OCc2ccccc2)[C@H](OCc2ccccc2)[C@@H](COCc2ccccc2)O[C@@H]1CC1CCCCC1
HeLa
  GI50: > 50 µM
HOS
  GI50: 20.7 µM

## CCC[C@@H]1O[C@H](COCc2ccccc2)[C@@H](OCc2ccccc2)[C@H](OCc2ccccc2)C1=O
HeLa
  GI50: > 50 µM
HOS
  GI50: > 50 µM

## CCCCOC[C@H]1O[C@@H](CCC)[C@H](O)[C@@H](OCCCC)C1OCCCC (some centres undefined)
HeLa
  GI50: > 50 µM
HOS
  GI50: > 50 µM

## O=C1[C@H](Cc2ccccc2)O[C@H](COCc2ccccc2)[C@@H](OCc2ccccc2)[C@@H]1OCc1ccccc1
HeLa
  GI50: > 50 µM
HOS
  GI50: > 50 µM

## CCC[C@H]1O[C@H](COCc2ccc(F)cc2)[C@@H](OCc2ccc(F)cc2)[C@H](OCc2ccc(F)cc2)[C@H]1O
HeLa
  GI50: 5.6 µM
HOS
  GI50: > 50 µM

## C[C@@H]1O[C@H](COCc2ccccc2)[C@@H](OCc2ccccc2)[C@H](OCc2ccccc2)C1=O
HeLa
  GI50: > 50 µM
HOS
  GI50: > 50 µM

## CCCCOC[C@H]1O[C@@H](CCC)C(=O)[C@@H](OCCCC)[C@@H]1OCCCC
HeLa
  GI50: > 50 µM
HOS
  GI50: > 50 µM

## OC[C@@H]1O[C@H](COCc2ccccc2)[C@@H](OCc2ccccc2)[C@H](OCc2ccccc2)[C@H]1O
HeLa
  GI50: 25.8 µM
HOS
  GI50: 27.3 µM

## OCC[C@@H]1O[C@H](COCc2ccccc2)[C@@H](OCc2ccccc2)[C@H](OCc2ccccc2)[C@H]1O
HeLa
  GI50: 30.2 µM
HOS
  GI50: 39.7 µM

## CC[C@@H]1O[C@H](COCc2ccccc2)[C@@H](OCc2ccccc2)[C@H](OCc2ccccc2)C1=O
HeLa
  GI50: > 50 µM
HOS
  GI50: 4.3 µM

## CC(=O)O[C@@H]1[C@@H](OCc2ccccc2)[C@H](OC(C)=O)[C@@H](COCc2ccccc2)O[C@H]1Cc1ccccc1
HeLa
  GI50: 5.4 µM
HOS
  GI50: 6.1 µM

## CCC[C@@H]1O[C@H](COCc2ccc3ccccc3c2)[C@@H](OCc2ccc3ccccc3c2)[C@H](OCc2ccc3ccccc3c2)[C@H]1O
HeLa
  GI50: > 50 µM
HOS
  GI50: > 50 µM

## C=CC[C@@H]1O[C@H](COCc2ccccc2)[C@@H](OCc2ccccc2)[C@H](OCc2ccccc2)[C@H]1OCc1ccccc1
HeLa
  GI50: > 50 µM
HOS
  GI50: > 50 µM

## CC(=O)OC[C@H]1O[C@@H](Cc2ccccc2)[C@H](OC(C)=O)[C@@H](OCc2ccccc2)[C@@H]1OC(C)=O
HeLa
  GI50: > 50 µM
HOS
  GI50: > 50 µM

## CC[C@@H]1O[C@H](COCc2ccccc2)[C@@H](OCc2ccccc2)[C@H](OCc2ccccc2)[C@H]1OC(C)=O
HeLa
  GI50: > 50 µM
HOS
  GI50: > 50 µM

## O[C@@H]1[C@@H](OCc2ccccc2)[C@H](OCc2ccccc2)[C@@H](COCc2ccccc2)O[C@H]1CC1CCCCC1
HeLa
  GI50: 9.5 µM
HOS
  GI50: 4.4 µM

## c1ccc(COC[C@H]2O[C@H]3C[C@H]3[C@@H](OCc3ccccc3)[C@@H]2OCc2ccccc2)cc1
HeLa
  GI50: > 50 µM
HOS
  GI50: > 50 µM

## O[C@@H]1[C@@H](O)[C@H](Cc2ccccc2)O[C@H](COCc2ccccc2)[C@H]1OCc1ccccc1
HeLa
  GI50: 47.9 µM
HOS
  GI50: 33.5 µM

## CC[C@H]1O[C@H](COCc2ccccc2)[C@@H](OCc2ccccc2)[C@H](OCc2ccccc2)[C@H]1O
HeLa
  GI50: > 50 µM
HOS
  GI50: > 50 µM

## O[C@@H]1[C@@H](OCc2ccccc2)[C@H](OCc2ccccc2)[C@@H](COCc2ccccc2)O[C@H]1c1ccccc1
HeLa
  GI50: > 50 µM
HOS
  GI50: > 50 µM

## CCC[C@H]1O[C@H](COCc2ccccc2)[C@@H](OCc2ccccc2)[C@H](OCc2ccccc2)C1=O
HeLa
  GI50: > 50 µM
HOS
  GI50: > 50 µM

## CCC[C@@H]1O[C@H](COCc2ccc3ccccc3c2)[C@@H](OCc2ccc3ccccc3c2)[C@H](OCc2ccc3ccccc3c2)[C@H]1OC(C)=O
HeLa
  GI50: > 50 µM
HOS
  GI50: > 50 µM

## CC(=O)O[C@@H]1[C@@H](OC(C)=O)[C@H](Cc2ccccc2)O[C@H](COCc2ccccc2)[C@H]1OC(C)=O
HeLa
  GI50: > 50 µM
HOS
  GI50: > 50 µM

## CCC[C@@H]1O[C@H](COCc2ccc(F)cc2)[C@@H](OCc2ccc(F)cc2)[C@H](OCc2ccc(F)cc2)[C@H]1O
HeLa
  GI50: 12.3 µM
HOS
  GI50: 17.2 µM

## CC(C)C[C@@H]1O[C@H](COCc2ccccc2)[C@@H](OCc2ccccc2)[C@H](OCc2ccccc2)C1=O
HeLa
  GI50: > 50 µM
HOS
  GI50: > 50 µM

## c1ccc(COC[C@H]2O[C@@H](Cc3ccccc3)[C@H](OCc3ccccc3)[C@@H](OCc3ccccc3)[C@@H]2OCc2ccccc2)cc1
HeLa
  GI50: > 50 µM
HOS
  GI50: > 50 µM

## CC(=O)O[C@@H]1[C@@H](OCc2ccccc2)[C@H](OCc2ccccc2)[C@@H](COCc2ccccc2)O[C@H]1C
HeLa
  GI50: > 50 µM
HOS
  GI50: 8.8 µM

## CC(=O)O[C@@H]1[C@@H](OCc2ccccc2)[C@H](OCc2ccccc2)[C@@H](COCc2ccccc2)O[C@@H]1CC(C)C
HeLa
  GI50: > 50 µM
HOS
  GI50: > 50 µM

## CCC[C@@H]1O[C@H](COCc2ccccc2)[C@@H](OCc2ccccc2)[C@H](OCc2ccccc2)[C@@H]1O
HeLa
  GI50: 23.3 µM
HOS
  GI50: > 50 µM

## CCCCC[C@@H]1O[C@H](COCc2ccccc2)[C@@H](OCc2ccccc2)[C@H](OCc2ccccc2)C1=O
HeLa
  GI50: > 50 µM
HOS
  GI50: > 50 µM

## CCCC[C@@H]1O[C@H](COCc2ccccc2)[C@@H](OCc2ccccc2)[C@H](OCc2ccccc2)[C@H]1O
HeLa
  GI50: > 50 µM
HOS
  GI50: 40.1 µM

## CCC[C@@H]1O[C@H](COCc2ccccc2)[C@@H](OCc2ccccc2)[C@H](OCc2ccccc2)[C@H]1O
HeLa
  GI50: 18.9 µM
HOS
  GI50: 38.6 µM
